Assay results published in patent US20090227518A1, “COMPOSITIONS AND METHODS FOR TREATING ACTIN-MEDIATED MEDICAL CONDITIONS” (The Regents of the University of Colorado, priority 2005, published 2009).

Experiments:
NF-κB = assay: IL-18-induced NF-κB expression; assay type: cell-based; conditions: induced by IL-18
Source text: P3 inh is also known as CE-2072 or (benzyloxycarbonyl)-L-valyl-N-[1-(2-(3-methylbenzyl)-1,3,4-oxadiazolyl]carbonyl)-2-(S)-methylpropyl]-L-prolinamide. Methods of preparing P3 inh and its derivatives are disclosed in U.S. Pat. No. 5,807,829, which is incorporated by reference herein. […] A band that corresponds to IL-18-induced NF-κB was much larger than NF-κB in controls not stimulated by IL-18. […] This was an unexpected observation as these compounds are not known to interfere with NF-κB expression.

HIV-1 = assay: U1 monocytic cell assay (HIV-1 p24 antigen); conditions: same experimental condition as in Example 7
Experimental: The U1 cell line was derived from human monocytic U937 cells into which 2 copies of HIV-1 provirus were incorporated into host genome. […] U1 cells were maintained in T-175 polystyrene flasks (Falcon, Becton Dickinson, Franklin Lakes, N.J.) in medium and used when in log phase growth. Cells were counted in a hemacytometer, examined for viability by Trypan blue exclusion (>95% for all experiments) and resuspended in fresh medium at 2×10^6 per ml. Two-hundred fifty μl of cell suspension were added to wells of 24-well polystyrene tissue culture plates (Falcon), followed by the addition of medium or AAT to produce the final concentration to be tested in a volume of 450 μl. After 1.0 hr of incubation (37° C., 5% CO2), 50 μl of medium (control) or stimulus diluted in medium were added to wells to produce the final concentration of stimulus to be tested. The final culture volumes were 500 μl and contained 1×10^6 cells per ml. […]
Data are presented as means±SEM. […] For data expressed as percent change, the values for p24 in control cultures (medium alone) were subtracted from those for each culture-containing stimulus. […] Percent p24 in cultures containing stimulus and AAT were calculated by dividing the measured p24 by that present in cultures containing stimulus alone. The resultant fraction was expressed as a percent.

HIV-1 strain A018A = assay type: cell-based, human; conditions: alone or in combination
Source text: The MAGI (Multinuclear Activation of a Galactosidase Indicator)-CCR-5 cell line is a clone derived from the HeLa cell line that expresses high levels of CD4. It has been transfected with a single integrated copy of a galactosidase gene under control of the HIV-1 long terminal repeat. β-Galactosidase is expressed upon production of HIV-1 Tat protein following one round of HIV-1 replication within the cell. The MAGI-CCR-5 cell line is derived from MAGI cells into which the CCR-5 HIV-1 co-receptor gene has been incorporated. These cells constitute an assay for early infection events and can be infected with either lymphocyte-tropic or macrophage-tropic HIV-1 strains.
Cells were cultured in polystyrene T-175 flasks in medium until cells were noted to be in log growth phase. Cells were then resuspended in fresh medium and aliquoted into 24-well polystyrene plates at 4×10^4 cells per well (1.0 ml total volume). After 24 hr incubation adherent cells were 30-40% confluent and medium was removed. Two hundred μl of fresh medium was then added to each well without (negative control) or with AAT and incubated for 1 hour. AAT diluent was added to a separate well at a volume equivalent to that of the highest concentration of AAT tested (control).
One hundred thirty TCID50 of HIV-1 and DEAE dextran in medium were added to each well. T-cell tropic HIV-1 strain A018A was used. After 2 hr incubation, medium was added to each well to adjust the final volume of each well to 500 μl. Cultures were incubated for 48 hr, which allowed infection of the MAGI-CCR-5 cells. Medium was aspirated and the cells fixed for 5.0 min at room temperature by adding 1.0 ml of a 1% formaldehyde/0.2% glutaraldehyde solution in phosphate buffered saline (PBS). Fixing solution was then aspirated and cells washed with PBS. This was followed by addition of galactosidase staining solution. Fifty minutes of incubation was followed by a blinded optical count of pigmented cells under a microscope.
The MAGI-CCR-5 cell assay evaluates early events in the HIV-1 infection process. These events include cell-surface binding and internalization, uncoating, reverse transcription and translation, protein processing and Tat activity. Binding of the tat protein to a reporter construct within the MAGI-CCR-5 cells enables quantification of these early HIV-1 events.

[1] = tested on: peritoneal cellular infiltrate; assay: Thioglycolate-elicited peritoneal infiltration; assay type: in vivo, mice; conditions: 1 mg
Experimental: Peritoneal lavage was performed at 24 and 48 hours (thioglycolate) or on days 1-5 (allogeneic cells). For lavage, mice were anesthetized by isoflurane inhalation and injected immediately with 5.5 ml cold PBS containing 5% FCS and 5 U/ml heparin into the peritoneal cavity. After massaging the abdomen, peritoneal fluid was recovered with an 18.5 G needle and syringe. Recovered volumes ranged from 4.5 to 5.5 ml. Red blood cells were lysed (RBC lysing buffer, BD PharMingen) and cell counts were performed with a hemocytometer. Cells were then centrifuged and the pellet was resuspended in wash buffer containing 2% BSA, 0.1% sodium azide and 0.1% EDTA. Cells were kept at 4° C. throughout the staining procedure. Cells (at least 1×10^6/polypropylene vial) were incubated with FcγRIII/II receptor blocking antibodies (Table 1) for 10 min. […] The number of cells expressing a particular marker was calculated by multiplying percentages obtained from flow-cytometry by the concentration of cells in lavage fluid.
To address the possibility that AAT affects immune cell infiltration, two models of cell emigration were examined: thioglycolate (ThG)-elicited peritoneal infiltration, and cellular infiltration due to intraperitoneal injection of MHC-incompatible fibroblasts. […] Peritoneal lavage was performed 24 and 48 hours later and cells were counted and stained with specific antibodies for FACS analysis.

porcine elastase = porcine elastase (Sus scrofa, UniProt P00772); assay: Elastase neutralization assay; assay type: biochemical; conditions: cleavable color-generating substrate
Chain of porcine elastase (P00772 27-266): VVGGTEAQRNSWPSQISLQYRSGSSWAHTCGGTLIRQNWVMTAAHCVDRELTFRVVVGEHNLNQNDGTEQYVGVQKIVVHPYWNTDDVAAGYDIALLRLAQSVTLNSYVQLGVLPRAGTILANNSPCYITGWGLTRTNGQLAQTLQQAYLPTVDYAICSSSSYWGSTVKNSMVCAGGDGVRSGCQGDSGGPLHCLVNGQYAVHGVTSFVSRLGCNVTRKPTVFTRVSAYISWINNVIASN
Experimental: The anti-serine protease function of AAT was examined for its role in the inhibitory effects on HIV-1. AAT was modified to reduce its serine protease inhibitory function to undetectable levels. Quantitation of the anti-protease activity of AAT was determined using an elastase neutralization assay. In this assay porcine elastase was incubated with a cleavable substrate. Upon cleavage of the substrate by elastase, a color-generating product was released, which was quantitated using a spectrophotometer. […] The inactivated AAT was then added to U1 cells, which was then stimulated with IL-18 and compared to native AAT.

F-actin = F-actin filament depolymerization; assay type: biochemical; conditions: added to preformed F-actin filaments
Experimental: In separate experiments (data not shown), F-actin filaments were produced and AAT was added to determine if AAT had depolymerization properties. As a control, Getsolin™, a protein that has known depolymerization properties, was added to F-actin filaments.

[2] = target: F-actin (filamentous actin); assay: F-actin co-sedimentation, 150,000 x g, SDS-PAGE densitometry, eight replicates

| Compound | antiviral activity in MAGI cultures (HIV-1 strain A018A) | other results |
| --- | --- | --- |
| Cc1cccc(Cc2nnc(C(=O)C(NC(=O)[C@@H]3CCCN3C(=O)[C@@H](NC(=O)OCc3ccccc3)C(C)C)C(C)C)o2)c1 (stereo partly shown) [P3 inh] | – | NF-κB expression (NF-κB): reduced; anti-HIV-1 effect (HIV-1): significant anti-HIV-1 effect |
| AVFLM: short peptide homologous/analogous to the C-terminal region of AAT | active | – |
| FAFLM: short peptide homologous/analogous to the C-terminal region of AAT | active | – |
| FIIMI: short peptide homologous/analogous to the C-terminal region of AAT | active | – |
| FLFAV: short peptide homologous/analogous to the C-terminal region of AAT | active | – |
| FLFCI: short peptide homologous/analogous to the C-terminal region of AAT | active | – |
| FLFFI: short peptide homologous/analogous to the C-terminal region of AAT | active | – |
| FLFLI: short peptide homologous/analogous to the C-terminal region of AAT | active | – |
| FLFVL: short peptide homologous/analogous to the C-terminal region of AAT | active | – |
| FLFVV: short peptide homologous/analogous to the C-terminal region of AAT | active | – |
| FLMFI: short peptide homologous/analogous to the C-terminal region of AAT | active | – |
| FLMII: short peptide homologous/analogous to the C-terminal region of AAT | active | – |
| FLVFI: short peptide homologous/analogous to the C-terminal region of AAT | active | – |
| FMLLI: short peptide homologous/analogous to the C-terminal region of AAT | active | – |
| FVALM: short peptide homologous/analogous to the C-terminal region of AAT | active | – |
| FVFAM: short peptide homologous/analogous to the C-terminal region of AAT | active | – |
| FVFLA: short peptide homologous/analogous to the C-terminal region of AAT | active | – |
| FVFLM: short peptide from the C-terminal region of AAT | active | – |
| FVYLI: carboxyterminal peptide analyzed for its effect on HIV-1 | active | – |
| Oxidized AAT: AAT oxidized by myeloperoxidase (MPO) system; loss of activity confirmed by elastase activity assay | – | cellular infiltrate [1]: did not affect cellular infiltrate; anti-protease (elastase inhibitory) activity (porcine elastase): Loss of activity |
| gelsolin | – | depolymerization of F-actin filaments (F-actin): actively dissociate |
| α1-antitrypsin (AAT), purified from human plasma | – | fold increase in actin-sedimented AAT against AAT only [2]: 1.7 fold; percentage of AAT sedimented in the presence of actin (AAT only = 100%) [2]: 268% |
